# Article PMC3198402 (PLoS ONE, 2011)
# Where no end group is shown, it is not given here.
# Target: HLA-A*24:03 (Homo sapiens, UniProt P04439, D101N/D140Y/D185E/E176V/F33S/G103R/G107R/I119L/I121M/I306V/K335N/L105A/L180Q/L300P/N151K/N90K/Q86E/Q94H/R106L/R138H/R89G/T104I/T345S/V100E/Y123F)
# Experiment: biochemical
# Assay type: binding
row,Sequence,Kd [nM]
1,GFLNEDHWF [Peptide 14615],34
2,GFMNEDHWF [Peptide 14622],17
3,MALVAFLRF [Peptide 14610],13
4,TYGWNIVKL [Peptide 14623],76
5,WYGMEIRPL [Peptide 14612],119
6,WYMWLGARF [Peptide 14613],19

# Target: HLA-A*02:01 (Homo sapiens, UniProt P04439, D140Y/D185E/D98H/E176V/E277Q/G131W/G231S/I119V/I121R/I166T/I218V/L300P/L318F/N151K/N90K/P208A/P217A/Q86G/Q94H/R138H/R169H/T345S)
# Experiment: biochemical
# Assay type: binding
row,Sequence,Kd [nM]
1,ILTDGPERV [Peptide 14602],4
2,KMDIGVPLL [Peptide 14598],1
3,LLLTLLATV [Peptide 14597],43
4,PLNEGIMAV [Peptide 14600],48
5,SMVNGVVKL [Peptide 14605],25
6,SMVNGVVRL [Peptide 14599],2
7,TLYAVATTV [Peptide 14606],1
8,VLNPYMPTV [Peptide 14604],1
9,YMPSVVETL [Peptide 14607],1
